In brackets after ≈: the same amount, converted by molar mass. Read-outs that look alike come from different tables or passages of the source.
What was measured:
[1] = aqueous solubility (concentration at saturation); format: physicochemical; details: water, read-out: Conc. at Saturation
[2] = partition coefficient; format: physicochemical
[3] = system: MDCK monolayers

Structure (SMILES)	solubility [1] [mg/mL]	logP [2]	flux over one hour ([3]; MDCK monolayers, 60-minute period, share of the amount added that crossed to the other side)	logP ([2]; studies in the laboratory)	flux over one hour ([3]; MDCK)
CN(CC(=O)OCc1ccccc1)C(=N)N [Creatine Benzyl Ester, creatine benzyl ester]	89.26 ± 0.8 (≈ 403 mM)	-0.975			
CN(CC(=O)O)C(=N)N.O [creatine monohydrate, reference compound]			approximately 10%	-1.82	
CCOC(=O)CN(C)C(=N)N [Creatine Ethyl Ester, creatine ethyl ester]	205.9 ± 1.5 (≈ 1290 mM)	-1.13			approximately 20%

Reference: patent publication EP1324760B1 (Board of Regents of the University of Nebraska, priority 2000, dated 2002)
